Entries after “also recorded” stand apart in the source; their conditions may differ. Where a SMILES comes first, the peptide text is derived from it. The star is where a group is joined. Cbz = O=C(OCc1ccccc1)*
Experiments:
MCF7 cells [1] = assay: Confocal immunofluorescence scoring of asymmetrically dividing and G0-like (H3K9me2low/MCM2low/HES1high) cells; format: cell-based, human; details: for frequency of G0-like cells / frequency of asymmetrically dividing and G0-like cells: MCF7; for frequency of G0-like cells: proteasome inhibitor for 24 h (Bortezomib 4 μM, MG-132 10 μM), doses that do not affect overall cell proliferation; for frequency of asymmetrically dividing and G0-like cells: small molecule for 72 h at the single dose (low, non-antiproliferative or target-suppressing), vs DMSO control; for production of G0-like cells: wild-type MCF7, target-suppressing doses, 72 hours or 144 hours
Experimental: (§1) Drug treatment in vitro. Cells were seeded onto collagen IV-coated coverslips, allowed to attach overnight, and treated with vehicle (DMSO) or AKT1/2 inhibitor (HCT116: 20μM; MCF7: 2 μM) (Sigma), MK2206 (HCT116: 10 μM; MCF7: 3 μM) (Selleck Chemicals), TORIN1 (HCT116: 0.5 μM; MCF7: 0.25 μM) (Tocris Bioscience), AZD8055 (HCT116: 0.7 μM; MCF7: 0.1 μM) (Selleck Chemicals), INK128 (HCT116: 0.05 μM; MCF7: 0.01 μM) (Active Biochem), Palomid 529 (HCT116: 10 μM; MCF7: 20 μM) (Selleck Chemicals), (Rapamycin (HCT116: 20 μM; MCF7: 20 μM)(Sigma), RAD-001 (HCT116: 10 μM; MCF7: 5 μM) (Selleck Chemicals), (AZD5363 (HCT116: 50 μM; MCF7: 5 μM) (Active Biochem), GDC0068 (HCT116: 50 μM; MCF7: 5 μM) (Active Biochem) for 72 h and Bortezemib (HCT116: 1 μM; MCF7: 4 μM) (Selleck Chemicals) MG-132 (vehicle: ethanol) (HCT116: 1 μM; MCF7: 10 μM), for 24 h.
(§2) Immunofluorescence staining. For bulk populations and for colonies, cells were grown directly on collagen IV-coated coverslips (Sigma). Cells were fixed in 3.7% formalin, permeabilized using 0.1% Triton X-100, and treated with 0.1% SDS. They were blocked in 1% BSA and then incubated with primary antibody (α-H3K9me2 (Abcam); α-MCM2 and α-Tubulin (Cell Signaling), α-Hes1 and α-TTC3 (Abnova)) diluted in blocking solution, washed, and incubated with the respective secondary antibody. Cells were mounted using hard-set mounting media containing DAPI (Vector Laboratories). All secondary antibodies were Alexa Fluor conjugates (488, 555, 568, 633, and 647) (Invitrogen). Immunofluorescence imaging (on a Nikon Eclipse Ti A1R-A1 confocal microscope) and live-cell imaging (on the Nikon Biostation CT platform) were performed as previously described (1).
(§3) Drug treatment in vitro. Cells were seeded onto collagen IV-coated coverslips, allowed to attach overnight, and treated with vehicle (DMSO) or AKT1/2 inhibitor (HCT116: 20 μM; MCF7: 2 μM) (Sigma), MK2206 (HCT116: 10 μM; MCF7: 3 μM) (Selleck Chemicals), TORIN1 (HCT116: 0.5 μM; MCF7: 0.25 μM) (Tocris Bioscience), AZD8055 (HCT116: 0.7 μM; MCF7: 0.1 μM) (Selleck Chemicals), INK128 (HCT116: 0.05 μM; MCF7: 0.01 μM) (Active Biochem), Palomid 529 (HCT116: 10 μM; MCF7: 20 μM) (Selleck Chemicals), (Rapamycin (HCT116: 20 μM; MCF7: 20 μM)(Sigma), RAD-001 (HCT116: 10 μM; MCF7: 5 μM) (Selleck Chemicals), BKM-120 (HCT116: 1.5 μM; MCF7: 0.5 μM) (Active Biochem), FAK inhibitors (PF-562271: 1 μM Pfizer) and NVP-TAE226 : 1 μM (Novartis), for both cell lines) for 72 h and Bortezemib (HCT116: 1 μM; MCF7: 4 μM) (Selleck Chemicals) MG-132 (vehicle: ethanol) (HCT116: 1 μM; MCF7: 10 μM), for 24 h.
as §2, with “(a-H3K9me2” for “(α-H3K9me2”, “A1R-A1™” for “A1R-A1”, “described7. Slides coated with Type-I collagen (control) and AlignCol™ woven with large collagen fibers (100-200 nm) (Advanced Biomatrix) were incubated for 1 hour in 70% ethanol and then washed with PBS. Cells were then plated on the slides and processed for immunofluorescence.” for “described (1).”
(§4) Antibody activation and inhibition. […]

HCT116 cells [2] = assay: as above; format: cell-based, human; details: for frequency of G0-like cells / frequency of asymmetrically dividing and G0-like cells: HCT116; for frequency of G0-like cells: proteasome inhibitor 1 μM for 24 h, doses that do not affect overall cell proliferation; for frequency of asymmetrically dividing and G0-like cells: small molecule for 72 h at the single dose (low, non-antiproliferative or target-suppressing), vs DMSO control; for production of G0-like cells: wild-type HCT116, target-suppressing doses, 72 hours or 144 hours
Experimental: as §1, §2, §3
as §2, with “(a-H3K9me2” for “(α-H3K9me2”, “A1R-A1™” for “A1R-A1”, “described7. Slides coated with Type-I collagen (control) and AlignCol™ woven with large collagen fibers (100-200 nm) (Advanced Biomatrix) were incubated for 1 hour in 70% ethanol and then washed with PBS. Cells were then plated on the slides and processed for immunofluorescence.” for “described (1).”
as §4

cancer cells = details: cited from earlier work
MCF7 cells [3] = assay: Tumor formation in nude mice by cells pre-treated ex vivo with AKT1/2 inhibitor
Experimental: (§5) Xenografting & tumor propagation in vivo. For in vivo RICTOR knockdown experiments, 5×10^5 cells (MCF7, HCT116, A375, PC9, MDA-MB-231 cell lines) carrying either doxycycline-inducible non-silencing or RICTOR-targeting shRNAs (120392, 225915) were injected subcutaneously into the flanks of 5-6 week old, female nude mice. The mice were given doxycycline in water at 20 mg/ml for hairpin induction. For induction of asymmetrically dividing cells and slow proliferators, cells were treated with AKT1/2 inhibitor and DMSO (vehicle) for 72 h and were harvested at 60-70% confluence, and then counted and washed twice in PBS and resuspended in 1:1 Media: Matrigel (BD Biosciences). 5×10^6, 5×10^5, 5×10^4, 5×10^3 and 5×10^2 cells respectively were injected subcutaneously into the flanks of 5-6 week old, female nude mice (Nude/Nude) (Charles River Labs). For all experiments, growing tumors were measured weekly by caliper, and mice were killed after the tumor size reached 1 cm^3. Mouse experiments were carried out under a Massachusetts General Hospital Institutional Review Board-approved protocol.
(§6) Tumor studies in vivo. For TS2/16 antibody treatment studies in vivo, we injected 5×10^5 cells (A375, MDA-MB-231, PC9, HCT116, MCF7) subcutaneously into the flanks of 5-6 week old, female nude mice (Nude/Nude) (Charles River Labs). Once the tumors were palpable, mice were injected i.p. with TS2/16 ([…] at 4 mg/ml/wk×5 weeks) and the tumors were measured. For RICTOR knockdown experiments in vivo, we injected 5×10^5 cells (A375, MDA-MB-231, PC9, HCT116, MCF7) carrying either doxycycline-inducible non-silencing or RICTOR-targeting shRNAs (120392, 225915) subcutaneously into the flanks of 5-6 week old, female nude mice (Nude/Nude). The mice were given doxycycline in water at 20 mg/ml for hairpin induction starting immediately after implantation. For induction of slow proliferators, cells were treated with AKT1/2 inhibitor and DMSO (vehicle) for 72 h and were harvested at 60-70% confluence, and then counted and washed twice in PBS and resuspended in 1:1 Media: Matrigel (BD Biosciences). We then injected 5×106, 5×105, and 5×10^4 cells respectively subcutaneously into the flanks of 5-6 week old, female nude mice. For all experiments, growing tumors were measured weekly by caliper, and mice were killed when tumors reached approximately 1 cm3 in size. Animal experiments were carried out under a Massachusetts General Hospital Institutional Review Board-approved protocol.

HCT116 cells [4] = assay: as above
Experimental: as §5, §6

| Compound | frequency of asymmetrically dividing and G0-like cells (MCF7 cells [1]) | frequency of asymmetrically dividing and G0-like cells (HCT116 cells [2]) | also measured |
| --- | --- | --- | --- |
| CC(C)C[C@@H](C=O)NC(=O)[C@H](CC(C)C)NC(=O)[C@H](CC(C)C)NC(=O)OCc1ccccc1 [MG-132] (Cbz-Leu-Leu-Leu-aldehyde) | – | – | frequency of G0-like cells (MCF7 cells [1]): significantly reduced; frequency of G0-like cells (HCT116 cells [2]): significantly reduced |
| O=c1[nH]c2ccccc2n1C1CCN(Cc2ccc(-c3nc4cc5[nH]cnc5cc4nc3-c3ccccc3)cc2)CC1 [AKT1/2] | dramatically increases | dramatically increases | effect on cancer cells at higher doses (cancer cells): kills cancer cells; tumor size, larger on average than tumors from untreated cell populations (MCF7 cells [3]; MCF7 pre-treated 72 h, implanted in nude mice): 50%; engraftment (MCF7 cells [3]; MCF7 pre-treated 72 h with low dose, implanted s.c. in nude mice over a range of cell numbers, vs DMSO-treated cells): significantly increased; also recorded: significantly promoted; tumor size over time (MCF7 cells [3]; MCF7 pre-treated with low dose ex vivo, s.c. in nude mice, 100-fold cell number range): notably larger; tumor size, larger on average than tumors from untreated cell populations (HCT116 cells [4]; HCT116 pre-treated 72 h, implanted in nude mice): 50%; engraftment (HCT116 cells [4]; HCT116 pre-treated 72 h with low dose, implanted s.c. in nude mice over a range of cell numbers, vs DMSO-treated cells): significantly increased; also recorded: significantly promoted; tumor size over time (HCT116 cells [4]; HCT116 pre-treated with low dose ex vivo, s.c. in nude mice, 100-fold cell number range): notably larger |
| CN(c1ncccc1CNc1nc(Nc2ccc3c(c2)CC(=O)N3)ncc1C(F)(F)F)S(C)(=O)=O [PF-562271] | increased | increased | – |
| AZD5363 | did not reduce | did not reduce | – |
| COc1ccc(-c2ccc3c(N4CCOC[C@@H]4C)nc(N4CCOC[C@@H]4C)nc3n2)cc1CO [AZD8055] | significantly reduced | significantly reduced | – |
| COc1ccc(COc2cc3oc(=O)c4cc(C(C)O)ccc4c3cc2OC)cc1 (centres unmarked) [Palomid-529] | significantly reduced | significantly reduced | – |
| Nc1cc(C(F)(F)F)c(-c2cc(N3CCOCC3)nc(N3CCOCC3)n2)cn1 [BKM-120] | not suppressed | not suppressed | production of G0-like cells (MCF7 cells [1]): not suppressed; production of G0-like cells (HCT116 cells [2]): not suppressed |
| CNC(=O)c1ccccc1Nc1nc(Nc2ccc(N3CCOCC3)cc2OC)ncc1Cl [NVP-TAE226] | increased | increased | – |
| CC(C)C[C@H](NC(=O)[C@H](Cc1ccccc1)NC(=O)c1cnccn1)B(O)O [Bortezomib] | – | – | frequency of G0-like cells (MCF7 cells [1]): significantly reduced; frequency of G0-like cells (MCF7 cells [1]; listed as bortezomib): reduced; frequency of G0-like cells (HCT116 cells [2]): significantly reduced; frequency of G0-like cells (HCT116 cells [2]; listed as bortezomib): reduced |
| CC(C)NC[C@@H](C(=O)N1CCN(c2ncnc3c2[C@H](C)C[C@H]3O)CC1)c1ccc(Cl)cc1 [GDC0068] | did not reduce | did not reduce | – |
| CCC(=O)N1CCN(c2ccc(-n3c(=O)ccc4cnc5ccc(-c6cnc7ccccc7c6)cc5c43)cc2C(F)(F)F)CC1 [TORIN1] | significantly reduced | significantly reduced | – |
| CO[C@H]1C[C@@H]2CC[C@@H](C)[C@@](O)(O2)C(=O)C(=O)N2CCCC[C@H]2C(=O)O[C@H]([C@H](C)C[C@@H]2CC[C@@H](OCCO)[C@H](OC)C2)CC(=O)[C@H](C)/C=C(\C)[C@@H](O)[C@@H](OC)C(=O)[C@H](C)C[C@H](C)/C=C/C=C/C=C/1C [RAD-001] | did not suppress; also recorded: not suppressed | did not suppress; also recorded: not suppressed | production of G0-like cells (MCF7 cells [1]): not suppressed; production of G0-like cells (HCT116 cells [2]): not suppressed |
| CC(C)n1nc(-c2ccc3oc(N)nc3c2)c2c(N)ncnc21 [INK-128] | significantly reduced | significantly reduced | – |
| NC1(c2ccc(-c3nc4ccn5c(=O)[nH]nc5c4cc3-c3ccccc3)cc2)CCC1 [MK2206] | dramatically increases | dramatically increases | – |

From patent US20190049436A1, “MODULATION OF ASYMMETRIC PROLIFERATION” (THE GENERAL HOSPITAL CORPORATION, priority 2012, published 2019)
